These results are taken from US7625950B2, “Amino-propanol derivatives as sphingosine-1-phosphate receptor modulator” (Novartis AG, priority 2003, dated 2009).

Counter-ions that a name gives are not always drawn.

Test [1] deals with peripheral blood lymphocytes. Kind of test: Blood lymphocyte depletion. The test is classed as in vivo. As to conditions: rats, p.o. The method, then: B. In Vivo: Blood Lymphocyte Depletion
A compound of formula I or the vehicle is administered orally by gavage to rats. Tail blood for hematological monitoring is obtained on day −1 to give the baseline individual values, and at 2, 6, 24, 48 and 72 hours after application.

For test [2], the target named is T1, human S1P receptor EDG-1 (S1P1) (Homo sapiens, UniProt P21453).
T1 construct: expressed in transfected cells
T1 sequence (P21453 whole entry): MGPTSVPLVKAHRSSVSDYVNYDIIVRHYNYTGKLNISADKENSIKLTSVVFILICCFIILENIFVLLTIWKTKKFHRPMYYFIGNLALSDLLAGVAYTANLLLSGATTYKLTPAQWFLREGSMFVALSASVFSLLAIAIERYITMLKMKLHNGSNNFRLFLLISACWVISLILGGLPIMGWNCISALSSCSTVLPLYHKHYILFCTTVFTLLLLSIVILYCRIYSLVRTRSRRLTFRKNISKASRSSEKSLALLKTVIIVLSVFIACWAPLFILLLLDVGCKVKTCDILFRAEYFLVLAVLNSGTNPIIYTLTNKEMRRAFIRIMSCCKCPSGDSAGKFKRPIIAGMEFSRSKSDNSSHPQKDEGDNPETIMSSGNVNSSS
The test is described as follows: S1P receptor profiling, GTP[γ-35S] binding SPA, S1P1. The test is classed as biochemical. Particulars: for S1P1 mode of action (Agon. = agonist): GTP[γ-35S] binding SPA; for EC50: GTP[γ-35S] binding to membrane protein of transfected CHO or RH7777 cells, SPA. The method, then:
(§1) Sphingosine-1-Phosphate (S1P) Receptor Profiling
(§2) Agonist activities of compounds are tested on the human SIP receptors EDG-1 (S1P1), EDG-3 (S1P3), EDG-5 (S1P2), EDG-6 (S1P4) and EDG-8 (S1P5). […] The assay technology used is SPA (scintillation proximity based assay). Briefly, DMSO dissolved compounds are serially diluted and added to SPA-bead (Amersham-Pharmacia) immobilised SIP receptor expressing membrane protein (10-20 μg/well) in the presence of 50 mM Hepes, 100 mM NaCl, 10 mM MgCl2, 10 μM GDP, 0.1% fat free BSA and 0.2 nM GTP [γ-^35S] (1200 Ci/mmol). After incubation in 96 well microtiterplates at RT for 120 min, unbound GTP [γ-^35S] is separated by a centrifugation step. Luminescence of SPA beads triggered by membrane bound GTP [γ-^35S] is quantified with a TOP count plate reader (Packard). EC50s are calculated using standard curve fitting software. In this assay, the compounds of formula I have a binding affinity to S1P1 receptor <50 nM.
(In general: GTPγS is a poorly hydrolysed GTP analogue; its binding reports G protein activation.)

Test [3] concerns the target T2, human S1P receptor EDG-3 (S1P3) (Homo sapiens, UniProt Q99500).
T2 construct: expressed in transfected cells
The test is described as follows: S1P receptor profiling, GTP[γ-35S] binding SPA, S1P3. The test is classed as biochemical. As to conditions: for S1P3 mode of action (Agon. = agonist): GTP[γ-35S] binding SPA; for EC50: GTP[γ-35S] binding to membrane protein of transfected CHO or RH7777 cells, SPA. The method, then: as §1, §2

Test [4] has as its target T3, human S1P receptor EDG-6 (S1P4) (Homo sapiens, UniProt O95977).
T3 construct: expressed in transfected cells
T3 sequence (O95977 1-384): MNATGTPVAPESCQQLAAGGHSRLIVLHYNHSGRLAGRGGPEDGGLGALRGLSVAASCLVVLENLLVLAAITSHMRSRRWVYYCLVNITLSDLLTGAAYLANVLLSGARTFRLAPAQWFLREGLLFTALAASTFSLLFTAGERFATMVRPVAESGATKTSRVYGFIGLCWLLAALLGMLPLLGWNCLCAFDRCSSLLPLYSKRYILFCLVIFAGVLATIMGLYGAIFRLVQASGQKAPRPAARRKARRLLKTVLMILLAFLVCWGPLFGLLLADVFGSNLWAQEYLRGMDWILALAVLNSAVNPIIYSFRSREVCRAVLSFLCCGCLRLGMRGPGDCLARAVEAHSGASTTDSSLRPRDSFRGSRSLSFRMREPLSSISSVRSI
Kind of test: S1P receptor profiling, GTP[γ-35S] binding SPA, S1P4. In kind it is biochemical. Particulars: for EC50: GTP[γ-35S] binding to membrane protein of transfected CHO or RH7777 cells, SPA; for S1P4 mode of action (Agon. = agonist): GTP[γ-35S] binding SPA. How it is done:
as §1, §2

In test [5] the target is T4, human S1P receptor EDG-8 (S1P5) (Homo sapiens, UniProt Q9H228).
T4 construct: expressed in transfected cells
T4 sequence (Q9H228 whole entry): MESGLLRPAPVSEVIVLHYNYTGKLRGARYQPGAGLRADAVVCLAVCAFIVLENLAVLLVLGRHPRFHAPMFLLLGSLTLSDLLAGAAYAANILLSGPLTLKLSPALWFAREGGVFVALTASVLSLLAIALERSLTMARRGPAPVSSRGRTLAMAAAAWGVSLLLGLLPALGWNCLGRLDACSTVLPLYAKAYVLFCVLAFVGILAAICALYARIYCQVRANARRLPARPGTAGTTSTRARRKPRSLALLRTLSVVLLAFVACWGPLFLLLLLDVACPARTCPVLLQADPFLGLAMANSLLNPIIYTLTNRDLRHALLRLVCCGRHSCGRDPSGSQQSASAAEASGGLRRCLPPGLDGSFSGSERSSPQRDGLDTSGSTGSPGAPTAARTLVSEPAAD
The test is described as follows: S1P receptor profiling, GTP[γ-35S] binding SPA, S1P5. The test is classed as biochemical. Particulars: for S1P5 mode of action (Agon. = agonist): GTP[γ-35S] binding SPA; for EC50: GTP[γ-35S] binding to membrane protein of transfected CHO or RH7777 cells, SPA. How it is done:
as §1, §2

T2 sequence (Q99500 whole entry): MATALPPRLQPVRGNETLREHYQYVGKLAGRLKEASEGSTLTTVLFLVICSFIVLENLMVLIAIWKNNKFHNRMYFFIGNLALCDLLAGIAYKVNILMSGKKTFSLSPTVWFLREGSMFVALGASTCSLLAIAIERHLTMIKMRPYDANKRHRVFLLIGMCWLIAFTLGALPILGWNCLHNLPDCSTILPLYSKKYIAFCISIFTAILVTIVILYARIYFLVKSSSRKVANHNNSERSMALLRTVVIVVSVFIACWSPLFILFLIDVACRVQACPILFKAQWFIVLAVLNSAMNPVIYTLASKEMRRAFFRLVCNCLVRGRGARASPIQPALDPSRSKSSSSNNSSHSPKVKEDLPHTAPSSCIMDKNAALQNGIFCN

Take `C[C@](N)(CO)CCc1ccc(OCCOc2ccc(Cl)cc2)cc1` [Example 1, (R)-2-Amino-4-{4-[2-(4-chloro-phenoxy)-ethoxy]-phenyl}-2-methyl-butan-1-ol Hydrochloride]: the “dose giving depletion of peripheral blood lymphocytes by more than 50%” value in test [1] (after 6 h) was determined as 0.03 mg/kg; in test [1] (after 24 h), 0.02 mg/kg.
Consider `C[C@@](N)(CCc1ccc(OCCOc2ccc(Cl)cc2)cc1)COP(=O)(O)O` [Example 36, (R)-Mono-(2-amino-4-{4-[2-(4-chloro-phenoxy)-ethoxy]-phenyl}-2-methyl-butyl) phosphate], for which, in test [2], the “S1P1 mode of action (Agon. = agonist)” value is reported as “Agon” and a half-maximal response (EC50) required 0.6 nM. In addition, in test [3], the “S1P3 mode of action (Agon. = agonist)” value is recorded as “Agon” and the EC50 – broadly, the concentration at which the effect is half-maximal – came to 15 nM. Further, the EC50 in test [4] is > 1000 nM. Further, in test [5], the “S1P5 mode of action (Agon. = agonist)” value is on record as “Agon” and it took 14 nM to reach a half-maximal effect (EC50).
As for `C[C@@](N)(CCc1ccc(OCCOc2ccccc2)cc1)COP(=O)(O)O` [Example 38], in test [2], the “S1P1 mode of action (Agon. = agonist)” value is on record as “Agon” and the EC50 was 8.6 nM. In test [3], the EC50 was > 1000 nM. In addition, in test [4], the “S1P4 mode of action (Agon. = agonist)” value is reported as “Agon” and it took 28 nM to reach a half-maximal effect (EC50). Besides, in test [5], the “S1P5 mode of action (Agon. = agonist)” value is “Agon” and the EC50 came out at 11.7 nM.
As to `C[C@@](N)(CCc1ccc(OCCOc2cccc(F)c2F)cc1)COP(=O)(O)O` [Example 42], the “S1P1 mode of action (Agon. = agonist)” value in test [2] is on record as “Agon”. Also, the EC50 in test [2] was 5.5 nM; in test [3] it was > 1000 nM; in test [4] it was 8.2 nM; in test [5], 6.3 nM. For the same compound, the “S1P4 mode of action (Agon. = agonist)” value in test [4] is reported as “Agon”. In addition, in test [5], the “S1P5 mode of action (Agon. = agonist)” value was “Agon”.
In the case of `COc1cc(CC[C@@](C)(N)COP(=O)(O)O)ccc1OCCOc1ccccc1` [Example 43], in test [2], the “S1P1 mode of action (Agon. = agonist)” value was “Agon” and the EC50 was found to be 8 nM. Besides, in test [3], the “S1P3 mode of action (Agon. = agonist)” value is reported as “Agon” and the EC50 came out at 340 nM. In test [4], the “S1P4 mode of action (Agon. = agonist)” value was “Agon” and the EC50 amounted to 43 nM. Further, in test [5], the “S1P5 mode of action (Agon. = agonist)” value is reported as “Agon” and the EC50 was 0.5 nM.
As to `COc1ccc(Br)cc1OCCCOc1ccc(CC[C@@](C)(N)CO)cc1` [Example 53, (R)-2-Amino-4-{4-[3-(5-bromo-2-methoxy-phenoxy)-propoxy]-phenyl}-2-methyl-butan-1-ol Hydrochloride], the “dose giving depletion of peripheral blood lymphocytes by more than 50%” value in test [1] (after 6 h) was found to be 0.1 mg/kg; in test [1] (after 48 h), 0.5 mg/kg.
On to `COc1ccc(Br)cc1OCCCOc1ccc(CCC(N)(CO)COP(=O)(O)O)cc1` (centres unmarked) [Example 56], for which, in test [2], the “S1P1 mode of action (Agon. = agonist)” value is reported as “Agon” and it took 8.5 nM to reach a half-maximal effect (EC50). In addition, in test [3], the “S1P3 mode of action (Agon. = agonist)” value is on record as “Agon” and the EC50 was > 10000 nM. Further, in test [4], the “S1P4 mode of action (Agon. = agonist)” value is given as “Agon” and the EC50 amounted to 1.6 nM. In test [5], the “S1P5 mode of action (Agon. = agonist)” value is reported as “Agon” and it took 16.5 nM to reach a half-maximal effect (EC50).
